Read-outs that look alike come from different tables or passages of the source.
Columns and labels:
CYP1A enzyme [1] = details: rat liver microsomes; cited from earlier work
CYP2C9 = CYP2C9 (Homo sapiens, UniProt P11712); test: CYP2C9 diclofenac 4′-hydroxylation assay in human liver microsomes; details: for inhibition of CYP2C9 in HLM (in words): even upto 50 μM concentrations
CYP3A4 = CYP3A4 (Homo sapiens, UniProt P08684); test: CYP3A4 testosterone 6β-hydroxylase assay in human liver microsomes; assay type: in vitro ADME; details: for inhibition of CYP3A4 in HLM (in words): even upto 50 μM concentrations
CYP2D6 = CYP2D6 (Homo sapiens, UniProt P10635); test: CYP2D6 dextromethorphan O-demethylation assay in human liver microsomes; assay type: in vitro ADME; details: for inhibition of CYP2D6 in HLM (in words): even upto 50 μM concentrations
[2] = stated in discussion, no experiment and reference not given, cited from earlier work
CYP1A enzyme [3] = details: human liver microsomes; cited from earlier work
[4] = IC50 values CYP2C9 (in μg/ml, in brackets), HLM, μM bound converted to μg/ml
[5] = IC50 values CYP2C9, HLM, diclofenac 50 μM, tested 1–50 μM
[6] = IC50 values CYP3A4 (in μg/ml, in brackets), HLM, μM bound converted to μg/ml
[7] = IC50 values CYP3A4, HLM, testosterone 100 μM, tested 1–50 μM
[8] = IC50 values CYP2D6 (in μg/ml, in brackets), HLM, μM bound converted to μg/ml
[9] = IC50 values CYP2D6, HLM, dextromethorphan 8 μM, tested 1–50 μM

Chain of CYP2C9 (P11712 whole entry): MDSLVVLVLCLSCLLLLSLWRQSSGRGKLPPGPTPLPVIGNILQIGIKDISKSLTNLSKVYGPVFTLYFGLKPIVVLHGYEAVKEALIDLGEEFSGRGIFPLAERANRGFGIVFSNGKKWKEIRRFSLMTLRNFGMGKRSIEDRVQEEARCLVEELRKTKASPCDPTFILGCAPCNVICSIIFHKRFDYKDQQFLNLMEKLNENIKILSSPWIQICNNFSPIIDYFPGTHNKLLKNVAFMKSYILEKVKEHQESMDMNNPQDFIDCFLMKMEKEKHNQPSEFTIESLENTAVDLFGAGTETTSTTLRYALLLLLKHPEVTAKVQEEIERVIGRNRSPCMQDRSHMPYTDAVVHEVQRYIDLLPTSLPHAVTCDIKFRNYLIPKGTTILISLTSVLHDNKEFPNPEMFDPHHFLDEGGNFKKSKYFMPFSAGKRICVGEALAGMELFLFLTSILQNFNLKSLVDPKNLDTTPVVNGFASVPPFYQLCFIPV
Chain of CYP3A4 (P08684 whole entry): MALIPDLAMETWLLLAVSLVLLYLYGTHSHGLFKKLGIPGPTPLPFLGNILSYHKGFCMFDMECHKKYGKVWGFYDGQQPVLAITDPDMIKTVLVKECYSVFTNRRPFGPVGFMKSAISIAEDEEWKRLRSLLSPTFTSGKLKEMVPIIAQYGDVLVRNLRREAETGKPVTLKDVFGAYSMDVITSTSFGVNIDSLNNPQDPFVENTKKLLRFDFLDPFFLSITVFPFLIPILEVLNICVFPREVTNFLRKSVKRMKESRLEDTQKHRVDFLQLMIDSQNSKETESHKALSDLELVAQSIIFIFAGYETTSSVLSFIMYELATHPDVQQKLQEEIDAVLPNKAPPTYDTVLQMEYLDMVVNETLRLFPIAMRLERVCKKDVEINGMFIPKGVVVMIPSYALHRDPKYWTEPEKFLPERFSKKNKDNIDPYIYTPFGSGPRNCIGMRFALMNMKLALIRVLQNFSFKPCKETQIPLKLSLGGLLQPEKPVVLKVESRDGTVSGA
Chain of CYP2D6 (P10635 whole entry): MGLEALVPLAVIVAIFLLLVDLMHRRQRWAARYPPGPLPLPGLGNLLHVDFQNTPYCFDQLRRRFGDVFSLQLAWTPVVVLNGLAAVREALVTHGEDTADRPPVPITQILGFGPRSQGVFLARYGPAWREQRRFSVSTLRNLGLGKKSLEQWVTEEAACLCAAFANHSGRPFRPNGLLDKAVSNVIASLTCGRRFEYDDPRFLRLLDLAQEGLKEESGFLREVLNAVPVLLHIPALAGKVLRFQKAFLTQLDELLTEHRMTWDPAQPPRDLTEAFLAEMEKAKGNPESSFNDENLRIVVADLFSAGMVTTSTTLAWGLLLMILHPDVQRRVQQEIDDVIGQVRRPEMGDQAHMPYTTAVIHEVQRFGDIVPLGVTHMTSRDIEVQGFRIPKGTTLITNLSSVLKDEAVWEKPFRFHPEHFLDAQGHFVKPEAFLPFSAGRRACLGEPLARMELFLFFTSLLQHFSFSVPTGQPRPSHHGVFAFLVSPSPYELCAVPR

For `CC1(C)CC[C@]2(C(=O)O)CC[C@]3(C)C(=CC[C@@H]4[C@@]5(C)C[C@@H](O)[C@H](O)[C@@](C)(CO)[C@@H]5CC[C@]43C)[C@@H]2[C@@H]1O` [Arjungenin, arjungenin], the “inhibition of CYP1A enzyme (in words)” value (CYP1A enzyme [1]) is listed as “did not show inhibition”, the IC50 (CYP2C9; [4]) is listed as over 49.5 µM and the IC50 (CYP2C9; [5]) is listed as over 50 µM. The “inhibition of CYP2C9 in HLM (in words)” value (CYP2C9) was “no significant inhibition”, the IC50 (CYP3A4; [6]) was over 49.5 µM and the IC50 (CYP3A4; [7]) was over 50 µM. For the same molecule, the “inhibition of CYP3A4 in HLM (in words)” value (CYP3A4) was “no significant inhibition”, the IC50 (CYP2D6; [8]) was over 49.5 µM and the IC50 (CYP2D6; [9]) was over 50 µM. For the same molecule, the “inhibition of CYP2D6 in HLM (in words)” value (CYP2D6) was “no significant inhibition”, the solubility in hexane ([2]; hexane) was “insoluble” and the solubility in methanol [2] was “freely soluble”. The “inhibition of CYP1A enzyme (in words)” value (CYP1A enzyme [3]) was “did not show inhibition”.
For `CC1(C)CC[C@]2(C(=O)O)CC[C@]3(C)C(=CC[C@@H]4[C@@]5(C)C[C@@H](O)[C@H](O)C(C)(C)[C@@H]5CC[C@]43C)[C@@H]2[C@@H]1O` [Arjunic acid], the “inhibition of CYP1A enzyme (in words)” value (CYP1A enzyme [1]) is listed as “did not show inhibition”, the IC50 (CYP2C9; [4]) is listed as over 51.2 µM and the IC50 (CYP2C9; [5]) is listed as over 50 µM. For the same molecule, the “inhibition of CYP2C9 in HLM (in words)” value (CYP2C9) was “no significant inhibition”, the IC50 (CYP3A4; [6]) was over 51.2 µM and the IC50 (CYP3A4; [7]) was over 50 µM. The “inhibition of CYP3A4 in HLM (in words)” value (CYP3A4) was “no significant inhibition”, the IC50 (CYP2D6; [8]) was over 51.2 µM and the IC50 (CYP2D6; [9]) was over 50 µM. The “inhibition of CYP2D6 in HLM (in words)” value (CYP2D6) was “no significant inhibition”, the solubility in methanol [2] was “freely soluble” and the solubility in water ([2]; water) was “insoluble”. For the same molecule, the “inhibition of CYP1A enzyme (in words)” value (CYP1A enzyme [3]) was “did not show inhibition”.

Source: PMC5598323 (Toxicology Reports, 2015)
